Results on 1 sequence are retold here after US20250304633A1, “PEPTIDE HAVING ANTIMICROBIAL ACTIVITY” (CABOSSE NATURALS NV, priority 2022, published 2025).

Ends that are not written are not given here.

Holding throughout (type): cell-based
For one experiment, the system named is tested fungal species. In words: MIC assays, all tested fungal species. The following applies: all the tested fungal species. As for the experimental part: (§1) The antimicrobial potential of the peptide described herein was compared with the activity of, two other AMPs, TcAMP1 and TcAMP2 as discussed in WO1998027805, and antibiotics or fungicides. Comparative MIC assays were carried out against several bacterial and fungal species (Table 1).
(§2) Peptides according to SEQ ID N° 1, SEQ ID N° 4, and SEQ ID N° 5 were serially diluted in order to create a concentration sequence ranging from 0.39 μg/ml to […].
(§3) Pantoea, Staphylococcus, and Listeria were cultured in Trypticase Soy Broth (TSY) medium consisting of 1.7% casein peptone, 0.3% soy peptone, 0.25% glucose, 0.5% NaCl, 0.25% K2HPO4 and optionally 1.5% agar. Candida cells were cultured in Yeast Extract Peptone Dextrose (YPD) broth medium consisting of 1% yeast extract, 2% peptone, 2% glucose, and optionally 2% agar. Ceratocystis, Botrytis, Leptosphaeria, Mycosphaerella, Sclerotinia, and Verticillium were cultured in Potato Dextrose Agar (PDA) medium consisting of 2.4% Difco pre-mix broth and optionally 1.5% agar.
For the MIC assay bacteria and fungi were grown on agar plates with their respective media. […] The optical density (OD) at 600 nm was measured after one to five days and adjusted to an OD600 of 1. […]
To evaluate MICs, 96-well plates were prepared with the test antimicrobial peptides. […] Results were visually evaluated and MICs determined based on growth or no-growth. […]

The next experiment deals with Mycosphaerella pinodes. As for the experimental part:
as §1, §2, §3
(§4) For the MIC assay bacteria and fungi were grown on agar plates with their respective media. Pre-cultures were prepared by inoculating either single bacterial colonies or small pieces of fungi in 5 ml of the respective liquid medium. The optical density (OD) at 600 nm was measured after one to five days and adjusted to an OD600 of 1. This cell suspension was used to prepare 1:500 dilutions, corresponding to approximately 2×10^6 microbial cells per ml.
(§5) To evaluate MICs, 96-well plates were prepared with the test antimicrobial peptides. Each well contained 100 μl microbial cell culture, 90 μl culture medium, and 10 μl peptide or control at the corresponding dilution. The plates were incubated overnight (ON) at the optimal growth temperature for each tested organism. Results were visually evaluated and MICs determined based on growth or no-growth.
(§6) MIC assays were conducted in at least two independent replicates and with different peptide starting concentrations.

A further experiment concerns Ceratosystis paradoxa. As for the experimental part:
as §1, §2, §3, §4, §5, §6

The subject of another experiment is Candida albicans. The method, then:
as §1, §2, §3, §4, §5, §6

Experiment [1] concerns Staphylococcus aureus MRSA. The method, then:
as §1, §2, §3, §4, §5, §6

A further experiment has as its system Sclerotinia sclerotiorum. The method, then: as §1, §2, §3, §4, §5, §6
Another experiment concerns Leptosphaeria maculans. The method, then:
as §1, §2, §3, §4, §5, §6

The test system of a further experiment is Verticillium dahliae. As for the experimental part: as §1, §2, §3, §4, §5, §6
In the next experiment the test system is Botrytis cinerea. As for the experimental part:
as §1, §2, §3, §4, §5, §6

The next experiment concerns Listeria monocytogenes. As for the experimental part: as §1, §2, §3, §4, §5, §6
Another experiment deals with Pantoea agglomerans. The method, then: as §1, §2, §3, §4, §5, §6

Take “YGRKQYERDPRQQYEQCQRRCESEATEEREQEQCEQRCEREYKEQQRQQEEELQRQ (cysteines drawn unpaired) [SEQ ID No 1]”: the “inhibitory effects in MIC assays” value in the experiment with tested fungal species is “inhibitory effects against all the tested fungal species”. Also, the Minimal inhibitory concentration in the experiment with Mycosphaerella pinodes was found to be 2.8 µg/mL; in the experiment with Ceratosystis paradoxa, 1.9 µg/mL; in the experiment with Candida albicans it was 3.85 µg/mL; in [1] it was 3.2 µg/mL; in the experiment on Sclerotinia sclerotiorum, 10.4 µg/mL; with Leptosphaeria maculans, 12.5 µg/mL. Also, the Minimal inhibitory concentration with Verticillium dahliae stood at 3.85 µg/mL; with Botrytis cinerea, 3.5 µg/mL; in the experiment with Listeria monocytogenes, 1.6 µg/mL; in the experiment with Pantoea agglomerans, 2.5 µg/mL.
